Legend:
[1] = Acid stability in 0.1 M HCl (absorption spectra); assay type: physicochemical; conditions: 0.1 M HCl over 24 h
Experimental: To examine the stability of compound 8 towards acid hydrolysis, the absorption spectra of a 0.05 mM solution of 8 in a 0.1 M aqueous solution of HCl was collected. Spectra were collected at room temperature every hour for a 24 h time period. No change in the spectra was observed (FIG. 11).

[2] = target: T1, MMP-8 (catalytic domain, human, recombinant) (Homo sapiens, UniProt P22894); experiment: MMP-8 fluorescence-based inhibition assay with and without β-glucosidase; assay type: biochemical
T1 construct: MMP-8 (catalytic domain, human, recombinant); purchased BIOMOL International
T1 sequence (P22894 100-262 limits assumed): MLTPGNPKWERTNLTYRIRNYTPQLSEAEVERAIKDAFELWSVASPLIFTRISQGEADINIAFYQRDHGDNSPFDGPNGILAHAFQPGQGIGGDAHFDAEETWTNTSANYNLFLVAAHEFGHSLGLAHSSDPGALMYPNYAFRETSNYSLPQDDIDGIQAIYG
Experimental: MMP-9 (catalytic domain, human, recombinant), MMP-8 (catalytic domain, human, recombinant), and the assay kit were purchased from BIOMOL International. The assays were carried out according to the procedure provided with the kit. MMP activity was measured in 96-well plates using a Bio-Tek Flx 800 fluorescent plate reader. The ZBGs and their protected analogs were dissolved in DMSO and diluted in HEPES buffer (50 mM, pH 7.5) to a concentration of 10 mM for 1-2, 40 mM for 3-4, and 1.25 mM for 5-6. Each well contained 20 μL, of MMP-9 (0.45 U/mL), inhibitor (10 μL, of 1-6), 5 μL, of β-glucosidase (1 U/μL) when used, and buffer for a total volume of 99 μL. These were incubated for 1 h at 37° C. […] The reaction was initiated by the addition of 1 μL (400 μM) of the fluorescent substrate (Mca-Pro-Leu-Gly-Leu-Dpa-Ala-Arg-NH2 where Mca=(7-methoxycoumarin-4-yl)-acetyl and Dpa=N-3-(2,4-dinitrophenyl)-L-α-β-diaminopropionyl)) and kinetic activity was measured every minute for 30 min with excitation and emission wavelengths at 335 nm and 405 nm, respectively. Enzyme activity with inhibitor was calculated with respect to the control experiment (no inhibitor present). […]
IC50 values were obtained for compounds 1-8 against MMP-9 and for compounds 7 and 8 against MMP-8. […] Enzyme activity with inhibitor was calculated with respect to the control experiment (no inhibitor present). […]

O=C(NCc1ccc(-c2ccccc2)cc1)c1cccc(=O)n1O[C@@H]1O[C@H](CO)[C@@H](O)[C@H](O)[C@H]1O [Compound 8, N-(Biphenyl-4-ylmethyl)-6-oxo-1-(β-D-glucopyranosyloxy)-1,6-dihydropyridine-2-carboxamide]
cleavage under acidic conditions [1]: not cleaved
inhibition at 0.15 µM ([2]; 150 nM, read-out: inhibition of MMP-8 after activation with β-glucosidase): 33%
increase in activity upon enzymatic activation ([2]; MMP-8, with vs without β-glucosidase): > 1000 fold

From US8889638B2, “Stimulus-triggered prodrugs” (The Regents of the University of California, priority 2010, dated 2014)
